From patent publication US20110275559A1, “Long-Acting Y2 and/or Y4 Receptor Agonists” (Novo Nordisk A/S, priority 2008, published 2011)
Read-outs that look alike come from different tables or passages of the source. Marks after values point to notes of the source that are not given here. *1 amine or outer side, *2 acyl side, *3 side chain or, on linkers, in order; H or OH if unused. Where a SMILES comes first, the peptide text is derived from it. Where no end group is shown, it is not given here. Side-chain parts run from the residue outwards. The star is where a group is joined. C20 diacid = O=C(O)CCCCCCCCCCCCCCCCCCC(=O)*; C18 diacid = O=C(O)CCCCCCCCCCCCCCCCC(=O)*; γGlu = O=C(O)[C@H](CCC(=O)[*:2])N[*:1]; Trx = NC[C@H]1CC[C@H](C(=O)O)CC1; AEEA = NCCOCCOCC(=O)O

Key:
[1] = Adrian T. E. et al, Gut (1978), 19, pp 907-909; cited from earlier work
in vivo = details: Göttingen, minipig, iv
Method in brief: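 Catheterised mini-pigs received compound i.v. at 10 nmol/kg in pH 4.0 phosphate/NaCl/tween vehicle, or alternatively i.v. or s.c. at 1–30 nmol/kg in pH 8.0 K2HPO4/tween. Stabilised plasma was sampled up to 13 days and assayed by LC-MS (LLOQ 2 nM). Half-life came from non-compartmental analysis of individual animal profiles.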

lean C57BL/6 mice = assay: Acute food intake in fasted lean mice (BioDAQ, fasting-induced refeeding); type: in vivo; details: for Mean cumulative food intake / Mean cumulative food intake [g]: Table 5, Study 6A
Description: Acute food intake in mice: Lean C57BL male mice are obtained from Charles River, Japan. They are maintained on a 12:12 light:dark cycle (lights off at 10:00 AM, lights on at 10:00 PM), fed pelleted D12450B rodent diet (Research Diets, Inc., New Brunswick, N.J.), and allowed water ad libitum. The mice arrive at 7-8 weeks of age and are acclimatized in the BioDAQ system a minimum of two weeks prior to study. On the day of study, mice are 9-12 weeks old. They are fasted overnight (20-24 h) with free access to water. The day of the study, mice are dosed with s.c. injection (dose volume=10 mL/kg), returned to their cage, and pre-weighed food is immediately placed in the cage. […] When the mice eat the weight reduction of the content of the food-tray is registered. Data is registered each time there is a change in the weight of the individual food-tray. Cumulative food intake is calculated by subtracting the food weight at each time point from the starting food weight.
Mice were administrated a single dose of the peptides (1 μmol/kg s.c.) 30 min before food return and cumulative food intake was measured over 24 h. […] One way ANOVA was carried for each time point out using the software Graph-Pad Prism, version 5.0. The statistical method used for the data in FIG. 1A was an unpaired t-test using the software Graph-Pad Prism, version 5.0. The statistical method used for the data in FIG. 1B and Table 4 was ANOVA, Dunnetts post hoc. Stars in FIGS. 1A and 1B indicate significance versus the vehicle group *) p<0.05, **) p<0.01, ***) p<0.001.
Fasted lean C57BL/6 mice were administrated a single subcutaneous injection of vehicle or peptide approximately 30 min before food return and the cumulative food intake was measured subsequently. One way ANOVA was carried out for each time point using the software Graph-Pad Prism, version 5.0.

Y4 receptor = molecular target: T1, Y4 receptor (Homo sapiens, UniProt P50391); assay: Y4 receptor ACTOne based FLIPR assay (cAMP biosensor); type: cell-based
T1 construct: host or cells: ACTOne HEK-293 cells
T1 sequence (P50391 whole entry): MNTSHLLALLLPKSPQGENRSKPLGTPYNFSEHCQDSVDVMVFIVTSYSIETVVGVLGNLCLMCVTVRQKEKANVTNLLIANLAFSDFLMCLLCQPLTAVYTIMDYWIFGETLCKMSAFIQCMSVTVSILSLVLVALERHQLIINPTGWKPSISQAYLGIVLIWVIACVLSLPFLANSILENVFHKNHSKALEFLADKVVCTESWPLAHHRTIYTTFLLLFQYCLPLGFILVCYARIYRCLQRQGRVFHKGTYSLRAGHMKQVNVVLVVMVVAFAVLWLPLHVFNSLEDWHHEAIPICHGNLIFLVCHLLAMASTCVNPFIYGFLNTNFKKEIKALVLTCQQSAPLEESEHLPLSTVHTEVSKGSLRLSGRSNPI

Y2 receptor [2] = molecular target: T2, Y2 receptor (Homo sapiens, UniProt P49146); assay: Y2 receptor ACTOne based FLIPR assay (cAMP biosensor); type: cell-based
T2 construct: host or cells: ACTOne HEK-293 cells
T2 sequence (P49146 1-381): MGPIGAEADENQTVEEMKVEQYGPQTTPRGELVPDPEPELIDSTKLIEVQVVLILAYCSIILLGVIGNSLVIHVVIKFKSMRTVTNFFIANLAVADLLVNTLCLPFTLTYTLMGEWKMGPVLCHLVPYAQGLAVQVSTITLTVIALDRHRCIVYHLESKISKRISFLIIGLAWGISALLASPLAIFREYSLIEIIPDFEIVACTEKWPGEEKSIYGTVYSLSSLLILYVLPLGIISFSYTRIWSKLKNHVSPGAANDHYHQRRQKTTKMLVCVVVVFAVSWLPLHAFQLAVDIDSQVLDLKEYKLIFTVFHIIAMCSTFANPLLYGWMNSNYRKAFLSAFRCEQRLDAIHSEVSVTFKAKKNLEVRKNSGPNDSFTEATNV

Y2 receptor [3] = molecular target: T3, Y2 receptor (UniProt P49146 1-381, limits assumed); assay: cell-based or functional assay
T3 sequence (looked up): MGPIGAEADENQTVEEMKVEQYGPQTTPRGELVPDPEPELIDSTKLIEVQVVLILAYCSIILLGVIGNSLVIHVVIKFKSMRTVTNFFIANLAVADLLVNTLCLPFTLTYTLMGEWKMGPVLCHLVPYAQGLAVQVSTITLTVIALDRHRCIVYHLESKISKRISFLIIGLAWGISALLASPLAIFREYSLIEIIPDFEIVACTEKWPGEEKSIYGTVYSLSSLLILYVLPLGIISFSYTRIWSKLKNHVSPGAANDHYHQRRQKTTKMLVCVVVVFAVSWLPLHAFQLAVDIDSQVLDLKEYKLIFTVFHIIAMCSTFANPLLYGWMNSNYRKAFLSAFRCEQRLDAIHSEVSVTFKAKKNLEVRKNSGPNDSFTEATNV

[4] = Table 2, PP analogues, ACTOne HEK-293 cells, read-out: Y4 cAMP EC50
[5] = Table 2, PP analogues, ACTOne HEK-293 cells, read-out: Y2 cAMP EC50

## CC[C@H](C)[C@H](NC(=O)[C@H](Cc1ccc(O)cc1)NC(=O)[C@H](CCCNC(=N)N)NC(=O)[C@H](CCCNC(=N)N)NC(=O)[C@H](CC(C)C)NC(=O)[C@H](CC(=O)O)NC(=O)[C@H](C)NC(=O)[C@H](C)NC(=O)[C@H](Cc1ccc(O)cc1)NC(=O)[C@H](CCC(N)=O)NC(=O)[C@H](C)NC(=O)[C@H](CCSC)NC(=O)[C@H](CCC(N)=O)NC(=O)[C@H](CCC(=O)O)NC(=O)[C@@H]1CCCN1C(=O)[C@@H](NC(=O)[C@H](C)NC(=O)[C@H](CC(N)=O)NC(=O)[C@H](CC(=O)O)NC(=O)CNC(=O)[C@@H]1CCCN1C(=O)[C@H](Cc1ccc(O)cc1)NC(=O)[C@@H](NC(=O)[C@@H]1CCCN1C(=O)[C@H](CCC(=O)O)NC(=O)[C@H](CC(C)C)NC(=O)[C@@H]1CCCN1C(=O)[C@H](C)N)C(C)C)[C@@H](C)O)C(=O)N[C@@H](CC(N)=O)C(=O)N[C@@H](CCSC)C(=O)N[C@@H](CC(C)C)C(=O)N[C@H](C(=O)N[C@@H](CCCNC(=N)N)C(=O)N1CCC[C@H]1C(=O)N[C@@H](CCCNC(=N)N)C(=O)N[C@@H](Cc1ccc(O)cc1)C(N)=O)[C@@H](C)O [SEQ ID NO: 2, hPP(1-36)]
[1]
  half-life reported in man: 7 min
In vivo; 15 nmol/kg
  half-life: 0.035 h
In vivo; 45 nmol/kg
  half-life: 0.031 h
Lean C57BL/6 mice; Study 6A, fasted lean C57BL/6 mice, 1.0 μmol/kg s.c.
  time after administration at which the effect in reducing food intake has disappeared: 12 h
Lean C57BL/6 mice; fasted lean C57BL/6 mice, single 1.0 μmol/kg s.c., 4 hours after injection, vehicle 1.51
  Mean cumulative food intake: 1.18 g
Lean C57BL/6 mice; mice, 1.0 μmol/kg s.c., 6 hours after injection, vehicle 2.04
  Mean cumulative food intake [g]: 1.51** g
Lean C57BL/6 mice; mice, 1.0 μmol/kg s.c., 8 hours after injection, vehicle 2.61
  Mean cumulative food intake [g]: 1.98** g
Lean C57BL/6 mice; mice, 1.0 μmol/kg s.c., 12 hours after injection, vehicle 3.49
  Mean cumulative food intake: 3.19 g
Lean C57BL/6 mice; mice, 1.0 μmol/kg s.c., 24 hours after injection, vehicle 4.35
  Mean cumulative food intake: 3.87 g
Lean C57BL/6 mice; mice, 1.0 μmol/kg s.c., 36 hours after injection, vehicle 8.41
  Mean cumulative food intake: 7.93 g
Lean C57BL/6 mice; mice, 1.0 μmol/kg s.c., 48 hours after injection, vehicle 8.87
  Mean cumulative food intake: 8.56 g

## CC[C@H](C)[C@H](NC(=O)[C@H](Cc1ccc(O)cc1)NC(=O)[C@H](CCCNC(=N)N)NC(=O)[C@H](CCCCNC(=O)COCCOCCNC(=O)COCCOCCNC(=O)CC[C@H](NC(=O)[C@H]1CC[C@H](CNC(=O)CCCCCCCCCCCCCCCCCCC(=O)O)CC1)C(=O)O)NC(=O)[C@H](CC(C)C)NC(=O)[C@H](CC(=O)O)NC(=O)[C@H](C)NC(=O)[C@H](C)NC(=O)[C@H](Cc1ccc(O)cc1)NC(=O)[C@H](CCC(N)=O)NC(=O)[C@H](C)NC(=O)[C@H](CC(C)C)NC(=O)[C@H](CCC(N)=O)NC(=O)[C@H](CCC(=O)O)NC(=O)[C@@H]1CCCN1C(=O)[C@@H](NC(=O)[C@H](C)NC(=O)[C@H](CC(N)=O)NC(=O)[C@H](CC(=O)O)NC(=O)CNC(=O)[C@@H]1CCCN1C(=O)[C@H](Cc1ccc(O)cc1)NC(=O)[C@@H](NC(=O)[C@@H]1CCCN1C(=O)[C@H](CCC(=O)O)NC(=O)[C@H](CC(C)C)NC(=O)[C@@H]1CCCN1)C(C)C)[C@@H](C)O)C(=O)N[C@@H](CC(N)=O)C(=O)N[C@@H](CC(C)C)C(=O)N[C@@H](CC(C)C)C(=O)N[C@H](C(=O)N[C@@H](CCCNC(=N)N)C(=O)N1CCC[C@H]1C(=O)N[C@@H](CCCNC(=N)N)C(=O)N[C@@H](Cc1ccc(O)cc1)C(N)=O)[C@@H](C)O [SEQ ID NO: 50, N-epsilon25-[2-(2-{2-[2-(2-{2-[(S)-4-Carboxy-4-({trans-4-[(19-carboxynonadecanoylamino)methyl]cyclohexanecarbonyl}amino)butyrylamino]-ethoxy}ethoxy)acetylamino]ethoxy}ethoxy)acetyl][Leu17,Lys25,Leu30]hPP2-36] (H-PLEPVYPGDNATPEQLAQYAADLK([AEEA-AEEA-γGlu-Trx-C20 diacid])RYINLLTRPRY-NH2)
Y4 receptor; [4]
  EC50: > 1000 nM
Y2 receptor [2]; [5]
  EC50: > 1000 nM
In vivo; 10 nmol/kg
  half-life: 82 h

## CC[C@H](C)[C@H](NC(=O)[C@H](Cc1ccc(O)cc1)NC(=O)[C@H](CCCNC(=N)N)NC(=O)[C@H](CCCNC(=N)N)NC(=O)[C@H](CC(C)C)NC(=O)[C@H](CC(=O)O)NC(=O)[C@H](C)NC(=O)[C@H](C)NC(=O)[C@H](Cc1ccc(O)cc1)NC(=O)[C@H](CCC(N)=O)NC(=O)[C@H](C)NC(=O)[C@H](CC(C)C)NC(=O)[C@H](CCC(N)=O)NC(=O)[C@H](CCC(=O)O)NC(=O)[C@@H]1CCCN1C(=O)[C@@H](NC(=O)[C@H](C)NC(=O)[C@H](CC(N)=O)NC(=O)[C@H](CC(=O)O)NC(=O)CNC(=O)[C@@H]1CCCN1C(=O)[C@H](Cc1ccc(O)cc1)NC(=O)[C@@H](NC(=O)[C@@H]1CCCN1C(=O)[C@H](CCC(=O)O)NC(=O)[C@H](CC(C)C)NC(=O)[C@@H]1CCCN1C(=O)COCCOCCNC(=O)COCCOCCNC(=O)CC[C@H](NC(=O)CCCCCCCCCCCCCCCCC(=O)O)C(=O)O)C(C)C)[C@@H](C)O)C(=O)N[C@@H](CC(N)=O)C(=O)N[C@@H](CC(C)C)C(=O)N[C@@H](CC(C)C)C(=O)N[C@H](C(=O)N[C@@H](CCCNC(=N)N)C(=O)N1CCC[C@H]1C(=O)N[C@@H](CCCNC(=N)N)C(=O)N[C@@H](Cc1ccc(O)cc1)C(N)=O)[C@@H](C)O [SEQ ID NO: 55, N-alfa-[2-(2-{2-[2-(2-{2-[(S)-4-Carboxy-4-(17-carboxyheptadecanoylamino)butyrylamino]ethoxy}ethoxy)acetylamino]-ethoxy}ethoxy)acetyl][Leu17,Leu30]hPP2-36] ({C18 diacid-γGlu-AEEA-AEEA}-PLEPVYPGDNATPEQLAQYAADLRRYINLLTRPRY-NH2; C-terminus assumed)
Y4 receptor; [4]
  EC50: 1 nM
Y2 receptor [2]; [5]
  EC50: > 1000 nM
In vivo; 7 nmol/kg
  half-life: 29 h

## CC[C@H](C)[C@H](NC(=O)[C@H](Cc1ccc(O)cc1)NC(=O)[C@H](CCCNC(=N)N)NC(=O)[C@H](CCCNC(=N)N)NC(=O)[C@H](CC(C)C)NC(=O)[C@H](CC(=O)O)NC(=O)[C@H](C)NC(=O)[C@H](C)NC(=O)[C@H](Cc1ccc(O)cc1)NC(=O)[C@H](CCC(N)=O)NC(=O)[C@H](C)NC(=O)[C@H](CC(C)C)NC(=O)[C@H](CCC(N)=O)NC(=O)[C@H](CCC(=O)O)NC(=O)[C@@H]1CCCN1C(=O)[C@@H](NC(=O)[C@H](C)NC(=O)[C@H](CC(N)=O)NC(=O)[C@H](CC(=O)O)NC(=O)CNC(=O)[C@@H]1CCCN1C(=O)[C@H](Cc1ccc(O)cc1)NC(=O)[C@@H](NC(=O)[C@@H]1CCCN1C(=O)[C@H](CCC(=O)O)NC(=O)[C@H](CC(C)C)NC(=O)[C@@H]1CCCN1C(=O)COCCOCCNC(=O)COCCOCCNC(=O)CC[C@H](NC(=O)[C@H]1CC[C@H](CNC(=O)CCCCCCCCCCCCCCCCCCC(=O)O)CC1)C(=O)O)C(C)C)[C@@H](C)O)C(=O)N[C@@H](CC(N)=O)C(=O)N[C@@H](CC(C)C)C(=O)N[C@@H](CC(C)C)C(=O)N[C@H](C(=O)N[C@@H](CCCNC(=N)N)C(=O)N1CCC[C@H]1C(=O)N[C@@H](CCCNC(=N)N)C(=O)N[C@@H](Cc1ccc(O)cc1)C(N)=O)[C@@H](C)O [SEQ ID NO: 56, N-alfa-[2-(2-{2-[2-(2-{2-[(S)-4-Carboxy-4-({trans-4-[(19-carboxynonadecanoylamino)methyl]cyclohexanecarbonyl}amino)butyrylamino]-ethoxy}ethoxy)acetylamino]ethoxy}ethoxy)acetyl][Leu17,Leu30]hPP2-36] ({C20 diacid-Trx-γGlu-AEEA-AEEA}-PLEPVYPGDNATPEQLAQYAADLRRYINLLTRPRY-NH2; C-terminus assumed)
Y4 receptor
  EC50: 4 nM
Y2 receptor [2]
  EC50: > 1000 nM
In vivo; in vivo, 6 nmol/kg
  half-life: 22 h

B1: N-alfa-[2-(2-{2-[2-(2-{2-[(S)-4-Carboxy-4-({trans-4-[(19-carboxynonadecanoylamino)methyl]cyclohexanecarbonyl}amino)butyrylamino]-ethoxy}ethoxy)acetylamino]ethox … (peptide)
peptide: {C20 diacid-Trx-γGlu-AEEA-AEEA}-NRYYASLRHYLNLVTRQRY
modifications: ends and bridges not checked
Y2 receptor [3]
  Y2 cAMP EC50: 97 nM
